Values quoted from earlier work, collected in patent US20140248600A1, “BLOOD TREATMENT APPARATUS ADAPTED TO PRESERVE PARTS THEREOF” (Gambro Lundia AB, priority 2011, published 2014).

System: C. albicans
Settings: resulting pH: acetic acid 3.6; citric acid 2.4; succinic acid 2.8; tartaric acid 2.3; fumaric acid 2.6; maleic acid 2.0; control pH 5.5

| SMILES | Growth of C. albicans with acid added to the medium |
| --- | --- |
| CC(=O)O [acetic acid] | grew as well as the control |
| O=C(O)CC(O)(CC(=O)O)C(=O)O [citric acid] | grew as well as the control |
| O=C(O)/C=C/C(=O)O [fumaric] | inhibition of growth |
| O=C(O)/C=C\C(=O)O [maleic acid] | inhibition of growth |
| O=C(O)CCC(=O)O [succinic acid] | grew as well as the control |
| O=C(O)C(O)C(O)C(=O)O (stereo not drawn) [tartaric acid] | grew as well as the control |
